Test results as given in patent US20160346249A1 (priority 2012, published 2016).

Assay: Brain and plasma levels of amitifadine and lactam metabolite EB-10101 in rat
Type: in vivo
Design: metabolite plasma level (mean±SEM): unit not given here
Conditions: for metabolite plasma level (mean±SEM): amitifadine 10 mg/kg po
Description: The studies are conducted in accordance with the Institutional Animal Care and Use Committee guidelines. […] At 0.5, 1, 2, and 4 hour after dosage, animals are briefly anesthetized in a chamber containing 4% isoflurane and rapidly decapitated. Trunk blood is collected in heparinized tubes (9 units/ml whole blood), immediately chilled to 4° C., centrifuged, and the plasma is frozen at −80° C. until analyzed. Brains are quickly removed, bisected along the midline, and frozen at −80° C. until analyzed.
Plasma and brain samples are allowed to thaw on ice and are homogenized in a 20 ml glass vial in two volumes of ice cold water using a handheld homogenizer (VDI 12, VWR International). Standard curves are prepared in water, control plasma, and control brain homogenate. Equal volumes (100 μl) of plasma and brain homogenate samples, distilled water and internal standard are mixed in 1.5 ml polypropylene tubes and 300 μl of acetonitrile is added to each mixture. Samples are then mixed thoroughly by placing on a shaker at 200 RPM for 40 minutes at room temperature. The samples are then centrifuged at 10,000×g for 10 minutes at 4° C. and the supernatant (200 μl) is transferred to a tube containing 2 μl of 10% formic acid. The samples are subjected to a Zorbax SBC18 Solvent Saver Plus 3.0×150 mm 3.5-μm column on a Shimadzu Prominence LC. […] The concentration of compound in the column effluent is measured using an Applied Biosystems API-3200 triple quadrupole mass spectrometer.

Structure (SMILES): O=C1NCC2(c3ccc(Cl)c(Cl)c3)CC12 (centres unmarked) [EB-10101, 5-(3,4-dichloro-phenyl)-3-aza-bicyclo[3.1.0]hexan-2-one]
- metabolite plasma level (mean±SEM) (0.5 h): 1153±610
- metabolite plasma level (mean±SEM) (1 h): 1620±303
- metabolite plasma level (mean±SEM) (2 h): 3831±1127
- metabolite plasma level (mean±SEM) (4 h): 8896±794
- Kp at 0.5 h (male, Sprague-Dawley, rat, brain and plasma, 10 mg/kg oral, 0.5 h, read-out: brain to plasma ratio): 1.1
- Kp at 1 h (male, Sprague-Dawley, rat, brain and plasma, 10 mg/kg oral, 1 h, read-out: brain to plasma ratio): 1.3
- Kp at 2 h (male, Sprague-Dawley, rat, brain and plasma, 10 mg/kg oral, 2 h, read-out: brain to plasma ratio): 1.4
- Kp at 4 h (male, Sprague-Dawley, rat, brain and plasma, 10 mg/kg oral, 4 h, read-out: brain to plasma ratio): 1.7
